Test results: BindingDB's records for doi:10.1111/cbdd.12356 (Peking University, 2014)

Target: T1, Polyunsaturated fatty acid 5-lipoxygenase (Homo sapiens, UniProt P09917)
T1 sequence (P09917 whole entry): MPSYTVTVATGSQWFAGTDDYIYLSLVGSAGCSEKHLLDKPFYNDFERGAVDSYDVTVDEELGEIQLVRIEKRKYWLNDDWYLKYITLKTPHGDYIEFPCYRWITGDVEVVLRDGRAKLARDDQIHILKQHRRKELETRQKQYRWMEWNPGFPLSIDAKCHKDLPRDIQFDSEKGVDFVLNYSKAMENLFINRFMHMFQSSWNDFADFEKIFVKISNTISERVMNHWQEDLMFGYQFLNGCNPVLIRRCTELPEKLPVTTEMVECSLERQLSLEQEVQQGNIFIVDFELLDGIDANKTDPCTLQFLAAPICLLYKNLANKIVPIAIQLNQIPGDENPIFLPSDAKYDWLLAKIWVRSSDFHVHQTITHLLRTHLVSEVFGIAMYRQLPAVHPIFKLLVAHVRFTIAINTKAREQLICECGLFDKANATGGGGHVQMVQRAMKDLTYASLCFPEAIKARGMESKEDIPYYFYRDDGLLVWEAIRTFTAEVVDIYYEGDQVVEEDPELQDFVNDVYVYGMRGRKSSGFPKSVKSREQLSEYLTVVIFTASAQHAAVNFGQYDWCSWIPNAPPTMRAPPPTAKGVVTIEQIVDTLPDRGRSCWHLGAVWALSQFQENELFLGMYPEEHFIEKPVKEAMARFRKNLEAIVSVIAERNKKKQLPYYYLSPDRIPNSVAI
Assay: Cell-Free Assay
Description: The enzyme activity of 5-LOX was determined fluorescence spectrophotometrically by oxidation of the substrate H2DCFDA to the highly fluorescent 2',7'-dichlorofluorescein product during 5-LOX s catalytic reaction . The reactions were initiated by the addition of AA as substrate and then monitored by excitation at 500 nm and emission at 520 nm utilizing a multiwall fluorometer. Fluorescence signals were recorded for 5 min with a kinetics mode program. Inhibition activities were measured as described previously.

Which IC50 does the source give for `O=C(c1[nH]nc2c1CSc1sc(Br)cc1-2)N1CCN(c2ccc(OC(F)(F)F)cc2)CC1` [11-bromo-5-{4-[4-(trifluoromethoxy)phenyl]piperazine-1-carbonyl}-8,10-dithia-3,4-diazatricyclo[7.3.0.0 ,⁶]dodeca-1(9),2,5,11-tetraene (7e)] here?
Its IC50 is 86 µM.

How did the IC50 turn out when `O=C(c1[nH]nc2c1CSc1sc(Br)cc1-2)N1CCN(c2ccccc2F)CC1` [11-bromo-5-[4-(2-fluorophenyl)piperazine-1-carbonyl]-8,10-dithia-3,4-diazatricyclo[7.3.0.0,6]dodeca-1(9),2,5,11-tetraene (7c)] was run?
The IC50 was 5.7 µM.

How did the IC50 turn out when `O=C(c1[nH]nc2c1CSc1sc(Br)cc1-2)N1CCN(Cc2ccccc2)CC1` [5-(4-benzylpiperazine-1-carbonyl)-11-bromo-8,10-dithia-3,4-diazatricyclo[7.3.0.0 ,⁶]dodeca-1(9),2,5,11-tetraene (7i)] was run?
Its IC50 is 21 µM.
